“Also recorded” adds a separate entry of the source. Bridge positions count the residues as written; N and C are the ends. Ends that are not written are not given here.
Key:
AST-CRd (TR71151) = experiment: Aequorin luminescence receptor assay, CHO-K1-Aeq-Gα16 cells transiently expressing AST-CRd; format: cell-based, Carcinus maenas
Text: (§1) The transcriptome of neural tissue of C. maenas, which has been previously assembled ([Oliphant et al., 2018]), identified four putative AST-C receptor candidates: TR71151a-d ([Oliphant et al., 2018]). These were chemically synthesized with a modified 5′ Kozak sequence (GAATTCGCCACC) and cloned in frame into a pcDNA3.1(+) plasmid vector (Genscript, Piscataway, NJ, USA). Separate aliquots of OneShot TOP10® E. coli cells (Invitrogen, Paisley, UK) were transformed with the plasmids and grown on LB plates containing 100 µg ml^−1 ampicillin overnight at 37°C. Positive clones were cultured overnight in LB broth with 100 µg ml^−1 ampicillin at 37°C and plasmids extracted using a Qiagen Plasmid Midiprep kit according to the manufacturer's instructions. Purified plasmids were re-sequenced (MWG Eurofins, Ebersberg, Germany) and analyzed using Geneious 9.1.8 ([Kearse et al., 2012]).
Chinese hamster ovary (CHO-K1) cells containing stably expressed apoaequorin (Perkin Elmer, Boston, MA) and either Gα16 or Gq subunit (control cells) were cultured in Dulbecco's Modified Eagle Medium (DMEM) F-12 Nutrient Mixture Glutamax (Gibco®) supplemented with 10% fetal bovine serum (Gibco®). Cells were maintained in vented T75 flasks at 37°C in 5% CO2. Cells grown in a monolayer to approximately 60% confluency were transfected with pcDNA 3.1 constructs using FugeneHD® (Promega) according to the manufacturer's recommendations. Transfection medium was prepared by combining 800 µl Opti-MEM® (Gibco) with 10 µg vector and the cells further incubated overnight. Cells were detached from the culture flask by incubating for 10 min in 5 ml 0.2% EDTA in PBS, washed in 10 ml clear DMEM–F-12 containing L-glutamine and 15 mmol l^−1 HEPES, centrifuged (for 5 min at 260 g) and resuspended at a concentration of 5×10^6 cells ml^−1 in 0.2 µm filtered BSA medium (DMEM–F-12 containing L-glutamine, 15 mmol l^−1 HEPES and 0.1% BSA). Coelenterazine h (Invitrogen, Paisley, UK) was added to give a concentration of 5 µmol l^−1, and the cells incubated in the dark at room temperature with gentle rocking. Before the assay, cells were further diluted (10-fold) and incubated for 60 min before use. Dried aliquots of peptides were reconstituted in BSA medium, and 50 µl added in quadruplicate to a white 96-well plate (Optiplate®, Perkin Elmer). Cell suspensions were gently stirred and injected (50 µl per well) using a Mithras LB 940 microplate reader (Berthold Technologies, Bad Wildbad, Germany) and light emission (Ca^2+ response recorded for 30 s). Cells were then lysed by injection of 50 µl per well 0.3% Triton-X in BSA medium, and light emission recorded for a further 10 s to measure total Ca^2+ response. BSA medium was used for blank measurements (six replicates per plate) and transfection with empty vectors was used for negative controls. Data were analyzed using Mikrowin 2010 v5 (Mikrotek Laborsysteme, Overath, Germany) and SigmaPlot v15 (Systat Software, Grafiti, Slough, UK).

[1] = test system: putative AST-C receptor candidates TR71151a-d other than AST-CR(d); experiment: Aequorin luminescence receptor assay, other putative AST-C receptor candidates; format: cell-based, Carcinus maenas; details: each candidate transiently expressed in CHO-K1-Aeq cells; 1µM peptide (Fig. S3)
Text: as §1, with “Positive clones were cultured overnight in LB broth with 100 µg ml^−1 ampicillin at 37°C and plasmids extracted using a Qiagen Plasmid Midiprep kit according to the manufacturer's instructions.” left out
Chinese hamster ovary (CHO-K1) cells containing stably expressed apoaequorin (Perkin Elmer, Boston, MA) and either Gα16 or Gq subunit (control cells) were cultured in Dulbecco's Modified Eagle Medium (DMEM) F-12 Nutrient Mixture Glutamax (Gibco®) supplemented with 10% fetal bovine serum (Gibco®). […] Cell suspensions were gently stirred and injected (50 µl per well) using a Mithras LB 940 microplate reader (Berthold Technologies, Bad Wildbad, Germany) and light emission (Ca^2+ response recorded for 30 s). Cells were then lysed by injection of 50 µl per well 0.3% Triton-X in BSA medium, and light emission recorded for a further 10 s to measure total Ca^2+ response. […]

[2] = test system: semi-isolated heart preparations; experiment: Semi-isolated heart preparation bioassay; design: species or system Carcinus maenas; details: 10^−6 mol l^−1 in saline, 20°C, recorded about 2 min; four preparations
Text: To determine possible myotropic and/or myoinhbitory activity of AST-C, AST-CC and AST-CCC, inter-molt crabs (∼65 mm carapace width) were ice-anaesthetized and rapidly decerebrated before removing all limbs and the dorsal carapace to expose the heart and pericardial cavity. The preparation was then fitted into a bowl lined with tissue, to provide a stable saline-flooded environment. The heart was connected to a force transducer (MLT0210/A) via a micro-fishing hook (size 28) and fine nylon (0.08 mm) monofilament. Connection to a PC with Chart 4.0 software was via a Bridge Pod (ML301) and Powerlab 4/20 (AD Instruments, Castle Hill, NSW, Australia). Transducer gain was set at maximum sensitivity (200 μV). Heart preparations were initially perfused with Carcinus physiological saline ([Saver et al., 1999]) at room temperature (20°C). Once a stable output was achieved, hearts were then perfused by sequentially adding approximately 2 ml saline containing AST-C, AST-CC and AST-CCC (GenScript Biotech, Piscataway, NJ, USA), and finally adding CCAP as a positive control (all peptides were at a concentration of 10^−6 mol l^−1 in saline). Each peptide addition was followed by extensive washout with saline, recording heart rate and beat amplitude for approximately 2 min after application of each peptide.

Y-organs = experiment: Y-organ in vitro bioassay of ecdysteroid synthesis (ecdysteroid RIA); format: cell-based, Carcinus maenas; details: native MIH 2 nmol l^−1, 24 h incubation, positive control
Description: To determine the possible activity of AST-C and/or AST-CC on ecdysteroid synthesis, Y-organs (YOs) were dissected from ice-anaesthetized crabs and used in the in vitro bioassay as detailed previously ([Webster, 1986]). Following 24 h incubations, culture medium was aspirated and snap frozen in liquid nitrogen prior to ecdysteroid RIA. YOs were sonicated in PBS, centrifuged (13,000 g for 5 min at room temperature) and assayed for protein concentration using a BCA protein kit (EMD Millipore, Burlington MA, USA). Protein concentrations (BSA standards) were used to normalize ecdysteroid synthesis between YO pairs.
Ecdysteroid RIAs were performed on 20 µl aliquots of culture medium using the following conditions: 100 μl 1:2000 anti-ecdysteroid serum HB-2E (a kind gift from R. D Watson, Alabama University), 100 µl H^−3 Ponasterone A [24, 25, 26, 27-3H (N), 3.5 TBq mmol^−1 (American Radiochemical Company, St Louis, MO, USA)] at 28,000 dpm per tube. 25-Deoxyecdysone (a kind gift from Prof. R. Lafont, Sorbonne University, Paris) was used as a standard (range 2500–19.5 pg per tube), and unknowns and standards were assayed in triplicate. Bound was separated from free using 50 µl per tube immobilized donkey anti-rabbit nitrocellulose suspension (Sac-Cel), as detailed for the AST-C RIA. Pellets were resuspended in 600 µl Hi-Safe 3 (Perkin Elmer) prior to counting. Using this RIA, both ecdysone and 25-deoxyecdysone (the two ecdysteroids synthesized by C. maenas YOs) were equally recognized.

AGCKNFFWKTFTSC [somatostatin, vertebrate homolog/paralog of AST-C, reference compound]
Activation of AST-CRd at saturating doses (AST-CRd (TR71151); 10, 1 µmol l^−1 peptide, quadruplicate): failed to activate; also recorded: without effect

SYWKQCAFNAVSCF-NH2 (disulfide 6-13 (inferred)) [AST-CCC, C. maenas AST-C family neuropeptide, C-terminally amidated; synthetic (GenScript)]
Activation of AST-CRd at extremely high doses (AST-CRd (TR71151); 10^−6 mol l^−1): slight activation | Luminescence response relative to the maximum response elicited by 10 µmol l^−1 AST-CC (AST-CRd (TR71151); peptide at 10 µmol l^−1, quadruplicate): less than 20% | Activation of the other candidate AST-C receptors [1]: not activated | Effect on heartbeat amplitude [2]: entirely unaffected | Effect on heartbeat frequency (heart rate) [2]: entirely unaffected

crustacean cardioactive peptide [CCAP, reference compound]
Effect on heartbeat amplitude [2]: increased amplitude | Effect on heartbeat frequency (heart rate) [2]: more than doubled

molt inhibiting hormone [reference compound]
Effect on ecdysteroid synthesis by Y-organs (Y-organs): large inhibitory effect | Effect on ecdysteroid synthesis by Y-organs (Y-organs; listed as MIH): full inhibition

— publication PMC11959706, “Allatostatin-C signaling in the crab Carcinus maenas is implicated in the ecdysis program” (The Journal of Experimental Biology, 2025)
